“Also recorded” adds a separate entry of the source.

The target of assay [1] is T1, human CB2 receptor (Homo sapiens, UniProt P34972).
T1 construct: expressed in transfected cells
The experiment in a line: 35S-GTPγS binding, CHO cells expressing human CB2 receptor. Format: biochemical. Here is the method:
(§1) (Martin et al. 2002; Wiley et al. 2002) CB1 and CB2 receptor affinities were determined using ^3H-CP 55,940 binding to rat brain membranes and to Chinese Hamster Ovary (CHO) cells stably expressing the human CB2 receptor, respectively. In vitro functional activity was determined in these same preparations using ^35S-GTPγS binding. For in vivo behavioural effects, mice were injected intravenously with the drugs prepared in ethanol:emulphor:saline (1:1:18). The mice were evaluated for locomotor activity, analgesia, body temperature, and catalepsy. These behaviours are collectively referred to as the tetrad test and are indicative of CB1 receptor activity.

Assay [2] has as its system mice. Description: Tetrad test (locomotor activity, analgesia, body temperature, catalepsy), indicative of CB1 receptor activity. The class given is in vivo, mouse. The following applies: i.v., doses up to 30 mg/kg. Here is the method:
The cerebral ischemia/reperfusion studies were carried out on 8 week old male C57BL/6 mice (weighing 23 to 27 g; Taconic N.Y.) and conducted in accordance with the guidelines approved by Institute for Animal Care and Use Committee at Temple University. The behavioural evaluation of the cannabinoid analogs was carried out in 8-week old ICR male mice weighing 23-27 g in accordance with the guidelines approved by the Institute for Animal Care and Use Committee at Virginia Commonwealth University.
as §1

For assay [3], the system named is C57BL/6 mice. The experiment in a line: Regional cerebral blood flow (rCBF) during MCAO. The settings on record: 1 mg/kg, 1 hour prior to occlusion, versus vehicle. Format: in vivo, mouse. Here is the method: (§2) The animals were anesthetized with an intraperitoneal injection of Ketamine ([…])-Xylazine (20 mg/kg) mixture (1:1) at a dose of 1 ml/kg. Body temperature was maintained at […]° C. by a heating lamp and heating pad. Middle cerebral artery occlusion was achieved by the intraluminal filament methods. (Hata et al. 1998) Briefly, a midline neck incision was made under the operation microscope; the right common carotid artery (CCA), external carotid artery (ECA) and internal carotid artery (ICA) were isolated. The ECA was ligated with 6-0 silk suture distal from the ICA-ECA branch and then cut distal from ligated point. Another 6-0 silk suture was tied loosely around ECA at close to the origin at the CCA. A blunted 5-0 monofilament nylon suture coated with poly-L-lysine (0.1% in deionized water, Sigma) (Belayev et al. 1999) was introduced from a small incision on ECA and then advanced into the circle of Willis, and finally to the origin of the middle cerebral artery. The silk suture around the ECA stump was tied tightly to prevent bleeding and secure the nylon suture. The nylon suture was removed after 60 minutes occlusion and ECA was permanently tied. Reperfusion was confirmed when pulsations were again observed in ICA.
A laserPro Blood Perfusion Monitor (TSI Inc) was used to monitor regional cerebral blood flow (rCBF) prior to ischemia, during MCAO and reperfusion. […]

Assay [4] deals with C57BL/6 mice. Description: Infarct volume after middle cerebral artery occlusion and reperfusion (MCAO/R). Format: in vivo, mouse. The settings on record: 24 hours after MCAO. The procedure: as §2
The CB2 agonists (O-1966 and O-3853: described in Wiley et al and WO 03/091189, incorporated herein by reference, and the copending application of Razdan et al)) were dissolved in a pure ethanol:emulphor:saline mixed solution at 1:1:18. The CB2 agonists (1 mg/kg) or equal volume of vehicle were administered as an intravenous injection into the jugular vein 1 hour before MCAO or 10 minutes after reperfusion. The investigator was blinded with regard to whether the animals were members of vehicle or treatment groups during all experimental procedures and measurements.
Animals were euthanized with an overdose of pentobarbital (200 mg/kg i.p) 24 hours after MCAO and then the brains were removed. The brains were chilled in ice for 10 minutes to slightly harden the tissue. Five 2 mm coronal sections were cut using a mouse brain matrix (Zivic lab).The brain sections were placed in 2% triphenyltetrazolium chloride (TTC) (Sigma, Inc) dissolved in saline and stained for 20 minutes at 37° C. in the dark. The brain sections were then fixed in 4% paraformaldehyde at 4° C. for 24 hours and the anterior and caudal face of each section was scanned by a flatbed color scanner (Microtek Inc). The resulting images were captured as JPEG files (FIG. 2E) and analyzed with NIH image software. The infarct volumes were expressed as mm^3 as well as the percentage of the ipsilateral hemisphere.

Assay [5] has as its system C57BL/6 mice. Description: Neurological evaluation (five-point deficit score) after MCAO/R. Format: in vivo, mouse. The following applies: 24 hours post-ischemia. Here is the method:
as §2, with “The silk suture around the ECA stump was tied tightly to prevent bleeding and secure the nylon suture. The nylon suture was removed after 60 minutes occlusion and ECA was permanently tied. Reperfusion was confirmed when pulsations were again observed in ICA.” left out
The severity of neurological deficits was evaluated 24 hours after ischemic insult using a five-point deficit score (0=normal motor function; 1=flexion of torso and of contralateral forelimb upon lifting of the animal by tail; 2=circling to the contralateral side but normal posture at rest; 3=leaning to contralateral side at rest; and 4=no spontaneous motor activity) (Hata et al. 1998).

For assay [6], the system named is C57BL/6 mice. Description: Leukocyte/endothelial interactions by intravital microscopy through a cranial window in MCAO/R. Format: in vivo, mouse. The following applies: treatment 1 hour before MCAO. Here is the method: On the day of cranial window implantation, the animals were anesthetized with an intraperitoneal injection of Ketamine (100 mg/ml)-Xylazine (20 mg/kg) mixture (1:1) at a dose of 1 ml/kg. The head was shaved and positioned in a stereotactic head holder. A 1 cm^2 area of skin on the dorsal surface of the skull over the right cortical hemisphere was excised and the periosteum was removed. A 4 mm diameter circular craniotomy was performed using a high speed drill (Champ-Air Dental Drill Benco Dental) over the right parietal cortex extending from attachment of the temporal muscle to midpoint of sagittal suture in the coronal direction and aligned to middle of the sagittal suture, so that the window contained some terminal branches of the middle cerebral artery. Normal saline was dripped over the cranium to avoid thermal injury of the cortex. […]
Leukocyte/endothelial interactions were evaluated before MCAO, 1 hour after MCAO and 24 hours after MCAO. […] Three venules (with diameter 30-50 μm) and three arterioles (with diameter 20-40 μm) in each animal were assessed. […] They were counted when they passed an arbitrary line perpendicular to the longitudinal axis of the vessel over a period of 30 seconds. […] Adhering leukocytes were scored as the number of cells per mm^2 of the vascular surface area, calculated from the diameter and standardized length (100 μm) of the vessel segment under investigation.

Assay [7] has as its system C57BL/6 mice. Description: Thoracic spinal cord injury (SCI) model. The class given is in vivo, mouse. The procedure: A thoracic spinal cord injury model was induced in female 6-8 week old C57BL/6 mice. Spinal cord CB2 mRNA expression was evaluated in sham animals and SCI animals 24 hours after injury by real time RT-PCR. Animals were randomized into two groups: the experimental group received intraperitoneal injections of a selective CB2 agonist (O-1966; 1 mg/kg) one hour before injury, 24 and 48 hours after injury; the control group received equal volumes of vehicle. Both groups were tested for motor function by using the Basso Mouse Scale for Locomotion (BMS) and the Basso, Beattie, Bresnahan Locomotor Rating Scale (BBB) on post-procedure days 1, 7, and 14. Urine mass was recorded twice daily to assess bladder recovery. The inflammatory cytokine TNF-α was measured by real time RT-PCR in both groups 24 hours after SCI.

For the next assay, the target named is T2, CB1 receptor (Rattus norvegicus, UniProt P20272).
T2 construct: from tissue; host or cells: rat brain membranes
T2 sequence (P20272 whole entry): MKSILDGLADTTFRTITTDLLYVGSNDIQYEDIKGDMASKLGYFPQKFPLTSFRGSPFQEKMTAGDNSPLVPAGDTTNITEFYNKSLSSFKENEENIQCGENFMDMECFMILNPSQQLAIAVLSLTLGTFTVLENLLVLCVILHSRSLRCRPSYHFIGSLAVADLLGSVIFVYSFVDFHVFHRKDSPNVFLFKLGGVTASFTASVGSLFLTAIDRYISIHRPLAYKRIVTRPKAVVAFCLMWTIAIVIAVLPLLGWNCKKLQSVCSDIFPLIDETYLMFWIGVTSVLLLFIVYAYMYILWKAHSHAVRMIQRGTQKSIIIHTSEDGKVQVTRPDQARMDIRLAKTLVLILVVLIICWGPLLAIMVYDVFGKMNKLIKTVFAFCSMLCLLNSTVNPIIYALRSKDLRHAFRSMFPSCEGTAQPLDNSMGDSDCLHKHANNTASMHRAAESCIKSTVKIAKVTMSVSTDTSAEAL
The settings on record: reported previously (Wiley et al. 2002); read-out: affinity for CB1 cannabinoid receptor; cited from earlier work.

Assay [8] has as its target T1, human CB2 receptor. The settings on record: reported previously (Wiley et al. 2002); read-out: affinity for CB2 cannabinoid receptor; cited from earlier work.
Assay [9] has as its system mice. The following applies: reference CB1/CB2 agonist, all four measures; cited from earlier work.
[10] abbreviates: 1 mg/kg i.v. 10 minutes after reperfusion (post-reperfusion treatment).
Setting [11] is: 1 mg/kg i.v. 1 hour before MCAO (pre-ischemic treatment).

T1 sequence (P34972 whole entry): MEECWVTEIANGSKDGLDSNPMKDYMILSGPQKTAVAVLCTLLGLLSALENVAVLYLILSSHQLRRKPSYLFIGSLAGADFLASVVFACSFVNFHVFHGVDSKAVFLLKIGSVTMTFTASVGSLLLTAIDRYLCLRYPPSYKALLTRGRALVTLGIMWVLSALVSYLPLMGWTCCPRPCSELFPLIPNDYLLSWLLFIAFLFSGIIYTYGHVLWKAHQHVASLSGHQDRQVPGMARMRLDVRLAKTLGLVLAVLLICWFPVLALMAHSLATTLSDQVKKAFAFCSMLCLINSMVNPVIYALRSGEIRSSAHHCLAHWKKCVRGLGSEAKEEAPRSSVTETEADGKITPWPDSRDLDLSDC

Turning to `CCCCCCC(C)(C)c1cc(OC)c(C2(O)CCCC(C)C2)c(OC)c1` (centres unmarked) [O-1966], on human CB2 receptor [1] (CHO cells with human CB2, read-out: EC50 for stimulating 35S-GTPγS binding (CB2)), the EC50 is 0.07 ± 0.014 µM. At human CB2 receptor [1] (percent of maximal stimulation produced by the full agonist CP 55,940), this molecule gave a maximal response (Emax) of 74 ± 5%. Besides, in the assay on mice [2], the “effects in the tetrad test (CB1 receptor-mediated behavioural effects)” value is “produced some modest behavioural effects only at doses that far exceeded those used in the MCAO/R studies; also recorded: failed to produce effects in the tetrad test”. Moreover, the “effect on rCBF during the 1 hour occlusion period” value with C57BL/6 mice [3] is listed as “no effect on rCBF”. Moreover, the infarct volume turned out to be 71.3±5.5 mm^3 in the assay with C57BL/6 mice [4] (setting [10]) and 65.6±4.0 mm^3 in the assay on C57BL/6 mice [4] (setting [11]). Moreover, the “infarct volume as percentage of the ipsilateral hemisphere” value in the assay on C57BL/6 mice [4] (setting [10]) stood at 27±2%; in the assay with C57BL/6 mice [4] (setting [11]), 25±2.5%. In addition, the motor function score in the assay with C57BL/6 mice [5] (pretreatment 1 hour before MCAO, vehicle 3.25±0.20) is reported as 1.69±0.30. Moreover, in the assay on C57BL/6 mice [5] (treatment during reperfusion), the motor function entry is reported as “significantly improved the motor function”. Besides, the leukocyte/endothelial interactions entry in the assay with C57BL/6 mice [6] is given as “attenuated leukocyte/endothelial interactions”. For the same molecule, in the assay with C57BL/6 mice [7] (1 mg/kg i.p. one hour before, 24 and 48 hours after injury, days 1, 7 and 14), the “motor function recovery (BMS and BBB)” value was “better motor function recovery than the control group”. In the assay with C57BL/6 mice [7] (1 mg/kg i.p., 14th day after SCI, control group 14%), the “bladder function recovery rate” value amounted to 45%. Also, the “TNF-α expression in the injured spinal cord” value with C57BL/6 mice [7] (real time RT-PCR, 24 hours after SCI, compared to control group) is on record as “decreased TNF-α expression”. In addition, the Ki was 5.05 µM at CB1 receptor and 0.023 ± 0.0021 µM on human CB2 receptor [8].

With `CCCCCc1cc(O)c2c(c1)OC(C)(C)[C@@H]1CCC(C)=C[C@@H]21` [Δ^9-tetrahydrocannabinol], in the assay with mice [9], the “ED50's in the four tetrad measures” value was 1 to 2 mg/kg.

Broadly, the EC50 is the concentration giving half of the maximal effect. The term Emax denotes the maximal effect, on the per cent scale that the assay sets.

Source of the values: patent US9763894B2, “Inflammation therapy” (Virginia Commonwealth University, priority 2006, dated 2017).
